This note sets out measurements from BindingDB's records for doi:10.1021/jm010087e (The University of Western Australia, 2001).

The structures appear in SMILES notation.

This assay can be described thus: Inhibitory activity against clostridium histolyticum collagenase.

As for `CC(C(=O)O)N(Cc1ccccc1[N+](=O)[O-])S(=O)(=O)N(C)C` (centres undefined) [2-[[(dimethylamino)sulfonyl](2-nitrobenzyl)amino]propanoic acid], the Ki amounted to 43000 nM.

In turn, `CC(C(=O)O)N(Cc1ccccc1[N+](=O)[O-])S(=O)(=O)c1cccc([N+](=O)[O-])c1` (centres undefined) [2-[(3-Nitro-benzenesulfonyl)-(2-nitro-benzyl)-amino]-propionic acid] came in with a Ki of 5200 nM.

As to `CC(C(=O)NO)N(Cc1ccccc1[N+](=O)[O-])S(=O)(=O)c1cccc2cccnc12` (centres undefined) [N-Hydroxy-2-[(2-nitro-benzyl)-(quinoline-8-sulfonyl)-amino]-propionamide], the Ki turned out to be 9 nM.

As to `CC(C(=O)O)N(Cc1ccccc1[N+](=O)[O-])C(=O)Nc1cccc(Cl)c1` (centres undefined) [2-[3-(3-Chloro-phenyl)-1-(2-nitro-benzyl)-ureido]-propionic acid], the affinity corresponds to a Ki of 6600 nM.

The molecule `CC(C(=O)NO)N(Cc1ccccc1[N+](=O)[O-])C(=O)Nc1ccc(F)cc1F` (centres undefined) [2-[3-(2,4-Difluoro-phenyl)-1-(2-nitro-benzyl)-ureido]-N-hydroxy-propionamide] registered a Ki of 12 nM.

`CC(C(=O)O)N(Cc1ccccc1[N+](=O)[O-])C(=O)Nc1ccc(F)cc1F` (centres undefined) [2-[3-(2,4-Difluoro-phenyl)-1-(2-nitro-benzyl)-ureido]-propionic acid] showed a Ki of 6500 nM.

For `CC(C(=O)NO)N(Cc1ccccc1[N+](=O)[O-])Sc1ccc([N+](=O)[O-])cc1` (centres undefined) [N-Hydroxy-2-[(2-nitro-benzyl)-(4-nitro-phenylsulfanyl)-amino]-propionamide], the Ki turned out to be 13 nM.

In turn, `Cc1ccc(S(=O)(=O)N(Cc2ccccc2[N+](=O)[O-])C(C)C(=O)O)cc1` (centres undefined) [2-[(2-Nitro-benzyl)-(toluene-4-sulfonyl)-amino]-propionic acid] had a Ki of 17000 nM.

In the case of `CC(C(=O)NO)N(Cc1ccccc1[N+](=O)[O-])C(=O)Nc1cccc2ccccc12` (centres undefined) [N-Hydroxy-2-[3-naphthalen-1-yl-1-(2-nitro-benzyl)-ureido]-propionamide], the Ki amounted to 10 nM.

On to `CC(C(=O)NO)N(Cc1ccccc1[N+](=O)[O-])S(=O)(=O)c1ccc(C(=O)O)cc1` (centres undefined) [4-[(1-Hydroxycarbamoyl-ethyl)-(2-nitro-benzyl)-sulfamoyl]-benzoic acid], for which the Ki was determined as 7 nM.

`CC(C(=O)NO)N(Cc1ccccc1[N+](=O)[O-])S(=O)(=O)N(C)C` (centres undefined) [2-[[(dimethylamino)sulfonyl](2-nitrobenzyl)amino]-N-hydroxypropanamide]: the Ki came to 79 nM.

Molecule `CC(C(=O)NO)N(Cc1ccccc1[N+](=O)[O-])Sc1ccccc1[N+](=O)[O-]` (centres undefined) [N-Hydroxy-2-[(2-nitro-benzyl)-(2-nitro-phenylsulfanyl)-amino]-propionamide] returned a Ki of 12 nM.

As for `COc1ccc(S(=O)(=O)N(Cc2ccccc2[N+](=O)[O-])C(C)C(=O)O)cc1` (centres undefined) [2-[(4-Methoxy-benzenesulfonyl)-(2-nitro-benzyl)-amino]-propionic acid], the affinity corresponds to a Ki of 5700 nM.

Molecule `CC(C(=O)O)N(Cc1ccccc1[N+](=O)[O-])S(=O)(=O)c1ccccc1[N+](=O)[O-]` (centres undefined) [2-[(2-Nitro-benzenesulfonyl)-(2-nitro-benzyl)-amino]-propionic acid] yielded an inhibition constant (Ki) of 4400 nM.

`CC(C(=O)NO)N(Cc1ccccc1[N+](=O)[O-])S(=O)(=O)c1ccc(I)cc1` (centres undefined) [N-Hydroxy-2-[(4-iodo-benzenesulfonyl)-(2-nitro-benzyl)-amino]-propionamide]: the Ki was determined as 34 nM.

Molecule `CC(C(=O)O)N(Cc1ccccc1[N+](=O)[O-])S(=O)(=O)c1c(F)c(F)c(F)c(F)c1F` (centres undefined) [2-[(2-Nitro-benzyl)-pentafluorobenzenesulfonyl-amino]-propionic acid] displayed an inhibition constant (Ki) of 300 nM.

Molecule `CC(C(=O)O)N(Cc1ccccc1[N+](=O)[O-])S(=O)(=O)C(F)(F)F` (centres undefined) [2-[(2-Nitro-benzyl)-trifluoromethanesulfonyl-amino]-propionic acid] registered an inhibitory constant (Ki) of 5100 nM.

As to `COc1ccc(S(=O)(=O)N(Cc2ccccc2[N+](=O)[O-])C(C)C(=O)NO)cc1NC(=O)OC(C)(C)C` (centres undefined) [{5-[(1-Hydroxycarbamoyl-ethyl)-(2-nitro-benzyl)-sulfamoyl]-2-methoxy-phenyl}-carbamic acid tert-butyl ester], the Ki was found to be 9 nM.

For `CC(C(=O)NO)N(Cc1ccccc1[N+](=O)[O-])S(=O)(=O)c1cccc2c(N(C)C)cccc12` (centres undefined) [2-[(5-Dimethylamino-naphthalene-1-sulfonyl)-(2-nitro-benzyl)-amino]-N-hydroxy-propionamide], the Ki worked out at 9 nM.

The molecule `CC(C(=O)O)N(Cc1ccccc1[N+](=O)[O-])S(=O)(=O)c1ccccc1` (centres undefined) [2-[Benzenesulfonyl-(2-nitro-benzyl)-amino]-propionic acid] showed a Ki of 27000 nM.

On to `CC(C(=O)NO)N(Cc1ccccc1[N+](=O)[O-])S(=O)(=O)c1cccc([N+](=O)[O-])c1` (centres undefined) [N-Hydroxy-2-[(3-nitro-benzenesulfonyl)-(2-nitro-benzyl)-amino]-propionamide], for which the inhibitory constant (Ki) amounted to 10 nM.

Take `CC(C(=O)O)N(Cc1ccccc1[N+](=O)[O-])S(=O)(=O)c1ccc(C(=O)O)cc1` (centres undefined) [4-[(1-Carboxy-ethyl)-(2-nitro-benzyl)-sulfamoyl]-benzoic acid]: affinity was put at a Ki of 1900 nM.

Turning to `CC(C(=O)O)N(Cc1ccccc1[N+](=O)[O-])S(=O)(=O)c1ccc(Br)cc1` (centres undefined) [2-[(4-Bromo-benzenesulfonyl)-(2-nitro-benzyl)-amino]-propionic acid], affinity was put at a Ki of 10000 nM.

In turn, `CC(C(=O)O)N(Cc1ccccc1[N+](=O)[O-])C(=O)Nc1ccc(Cl)c(Cl)c1` (centres undefined) [2-[3-(3,4-Dichloro-phenyl)-1-(2-nitro-benzyl)-ureido]-propionic acid] yielded a Ki of 5300 nM.

On to `CC(C(=O)O)N(Cc1ccccc1[N+](=O)[O-])S(=O)(=O)c1cccc(C(=O)O)c1` (centres undefined) [3-[(1-Carboxy-ethyl)-(2-nitro-benzyl)-sulfamoyl]-benzoic acid], for which the Ki worked out at 2100 nM.

In the case of `CC(C(=O)O)N(Cc1ccccc1[N+](=O)[O-])Sc1ccccc1[N+](=O)[O-]` (centres undefined) [2-[(2-Nitro-benzyl)-(2-nitro-phenylsulfanyl)-amino]-propionic acid], the inhibitory constant (Ki) was 6200 nM.

The molecule `CC(C(=O)O)N(Cc1ccccc1[N+](=O)[O-])C(=O)NS(=O)(=O)c1ccc(Cl)cc1` (centres undefined) [2-[({[(4-chlorophenyl)sulfonyl]amino}carbonyl)(2-nitrobenzyl)amino]propanoic acid] yielded a Ki of 2700 nM.

In the case of `CC(C(=O)NO)N(Cc1ccccc1[N+](=O)[O-])S(=O)(=O)c1ccc([N+](=O)[O-])cc1` (centres undefined) [N-Hydroxy-2-[(4-nitro-benzenesulfonyl)-(2-nitro-benzyl)-amino]-propionamide], affinity was put at a Ki of 13 nM.

Turning to `CC(C(=O)O)N(Cc1ccccc1[N+](=O)[O-])S(=O)(=O)C(F)(F)C(F)(F)C(F)(F)C(F)(F)F` (centres undefined) [2-[(2-Nitro-benzyl)-(nonafluorobutane-1-sulfonyl)-amino]-propionic acid], affinity was put at a Ki of 2100 nM.

In turn, `CC(=O)Nc1ccc(S(=O)(=O)N(Cc2ccccc2[N+](=O)[O-])C(C)C(=O)NO)cc1` (centres undefined) [2-[(4-Acetylamino-benzenesulfonyl)-(2-nitro-benzyl)-amino]-N-hydroxy-propionamide] showed a Ki of 12 nM.

In turn, `CC(C(=O)O)N(Cc1ccccc1[N+](=O)[O-])C(=O)NS(=O)(=O)c1ccc(F)cc1` (centres undefined) [2-[({[(4-fluorophenyl)sulfonyl]amino}carbonyl)(2-nitrobenzyl)amino]propanoic acid] gave a Ki of 3000 nM.

The molecule `CC(C(=O)O)N(Cc1ccccc1[N+](=O)[O-])S(=O)(=O)c1cc(Cl)ccc1Cl` (centres undefined) [2-[(2,5-Dichloro-benzenesulfonyl)-(2-nitro-benzyl)-amino]-propionic acid] returned a Ki of 3400 nM.

Take `CC(C(=O)NO)N(Cc1ccccc1[N+](=O)[O-])C(=S)NC(=O)c1ccccc1` (centres undefined) [2-[3-Benzoyl-1-(2-nitro-benzyl)-thioureido]-N-hydroxy-propionamide]: the affinity corresponds to a Ki of 8 nM.

Consider `CC(C(=O)O)N(Cc1ccccc1[N+](=O)[O-])S(=O)(=O)c1ccc2ccccc2c1` (centres undefined) [2-[(Naphthalene-2-sulfonyl)-(2-nitro-benzyl)-amino]-propionic acid], for which the affinity, expressed as Ki, was 1800 nM.

`CC(C(=O)O)N(Cc1ccccc1[N+](=O)[O-])C(=O)Nc1ccc(F)cc1` (centres undefined) [2-[3-(4-Fluoro-phenyl)-1-(2-nitro-benzyl)-ureido]-propionic acid] had a Ki of 6200 nM.

Turning to `Cc1ccc(S(=O)(=O)N(Cc2ccccc2[N+](=O)[O-])C(C)C(=O)NO)cc1` (centres undefined) [N-Hydroxy-2-[(2-nitro-benzyl)-(toluene-4-sulfonyl)-amino]-propionamide], the inhibitory constant (Ki) is 41 nM.

The molecule `CC(C(=O)NO)N(Cc1ccccc1[N+](=O)[O-])Sc1ccc([N+](=O)[O-])cc1[N+](=O)[O-]` (centres undefined) [2-[(2,4-Dinitro-phenylsulfanyl)-(2-nitro-benzyl)-amino]-N-hydroxy-propionamide] displayed a Ki of 9 nM.

`CC(C(=O)NO)N(Cc1ccccc1[N+](=O)[O-])S(=O)(=O)c1cccs1` (centres undefined) [N-Hydroxy-2-[(2-nitro-benzyl)-(thiophene-2-sulfonyl)-amino]-propionamide] gave a Ki of 10 nM.

The molecule `CC(C(=O)O)N(Cc1ccccc1[N+](=O)[O-])C(=S)NC(=O)c1ccccc1` (centres undefined) [2-[3-Benzoyl-1-(2-nitro-benzyl)-thioureido]-propionic acid] registered a Ki of 700 nM.
